From the NIST ThermoML archive (doi:10.1016/j.fluid.2017.04.016)
Numbers after ± are expanded uncertainties.

Experiment: mean ionic activity coefficient (dimensionless); mn = molality of the nth substance listed, in mol/kg
Settings: 101 kPa, Liquid, galvanic cell

[Br-].[Na+] [sodium bromide] + O
mean ionic activity coefficient
Settings	298.2 K	310.2 K
m1 = 0.01	0.875 ± 0.039	–
m1 = 0.0508	0.835 ± 0.039	0.714 ± 0.039
m1 = 0.1	–	0.631 ± 0.039
m1 = 0.1009	0.777 ± 0.039	–
m1 = 0.25	–	0.669 ± 0.039
m1 = 0.2509	0.799 ± 0.039	–
m1 = 0.5004	0.699 ± 0.039	–
m1 = 0.5731	–	0.579 ± 0.039
m1 = 0.75	0.637 ± 0.039	–
m1 = 0.7503	–	0.559 ± 0.039
m1 = 1	0.612 ± 0.039	0.547 ± 0.039
m1 = 1.25	0.587 ± 0.039	0.553 ± 0.039
m1 = 1.5	0.57 ± 0.039	0.576 ± 0.039
m1 = 1.75	0.575 ± 0.039	0.61 ± 0.039
m1 = 2	0.642 ± 0.039	0.635 ± 0.039
m1 = 2.25	0.633 ± 0.039	0.643 ± 0.039
m1 = 2.5	0.644 ± 0.039	0.646 ± 0.039
m1 = 2.75	0.584 ± 0.039	0.711 ± 0.039
m1 = 3	0.616 ± 0.039	0.846 ± 0.039
